Measured values from publication PMC6503470, “Antibacterial Oligomeric Polyphenols from the Green Alga Cladophora socialis” (The Journal of Organic Chemistry, 2019).
In brackets after ≈: the same amount, converted by molar mass. Where two headings read alike, the source gives them in different places.

Experiments:
[1] = test system: vancomycin-resistant Enterococcus faecium (VREF, ATCC 700221); experiment: Antibacterial MIC assay, VREF; format: cell-based; conditions: ATCC700221, MIC90, values expressed as 95% confidence interval, read-out: Minimal inhibitory concentration, VREF
[2] = Antibacterial MIC assay, Gram-negative panel; format: cell-based, Gram-negative bacteria (panel); conditions: one value for the whole panel of Gram-negative strains; read-out: Minimal inhibitory concentration, Gram–
[3] = test system: wild type Candida albicans (WTCA, ATCC 32354); experiment: Antifungal MIC assay, wild type C. albicans; format: cell-based; conditions: ATCC32354, MIC90, values expressed as 95% confidence interval, read-out: Minimal inhibitory concentration, WTCA
[4] = test system: amphotericin B-resistant C. albicans (ARCA, ATCC 90873); experiment: Antifungal MIC assay, amphotericin B-resistant C. albicans; format: cell-based; conditions: Candida albicans, ATCC90873; MIC90; values expressed as 95% confidence interval; read-out: Minimal inhibitory concentration, ARCA
[5] = test system: P. falciparum strain Dd2L; experiment: Parasite proliferation assay, asexual blood-stage P. falciparum, SYBR Green; format: cell-based; conditions: Plasmodium falciparum
Protocol: Antimalarial activity was assessed using a standard parasite proliferation assay with asexual blood-stage P. falciparum and SYBR Green detection.[22] Screening media (complete media supplemented with 0.05% Albumax II but without human serum) and fresh O^+ erythrocytes (TSRI Normal Blood Donation) were used for cultures of P. falciparum strain Dd2L (gift from Dr. David Fidock, Colombia University). A Labcyte ECHO acoustic liquid handler transferred compounds into assay plates. The plates were inoculated (Multi-Flo; BioTek, VT) with parasitized erythrocytes and fresh erythrocytes prepared in screening media, resulting in a final parasitemia of 0.3% and hematocrit of 2.5%. A chamber with a low oxygen gas mixture at 37 °C was used to culture the assay plates for 72 h with daily gas exchanges. SYBR Green lysis buffer was added to the wells after incubation using a Multi-Flo liquid dispenser, and plates were incubated at room temperature for an additional 24 h to achieve optimal development of the fluorescence signal which was read by an Envision Multimode Reader (PerkinElmer, MA). The positive controls used were atovaquone (EC50 = 0.0006 μM) and artemisinin (EC50 = 0.03 μM).

[6] = test system: MDR Escherichia coli (MDREC, ATCC BAA-1743); experiment: microbe, parasite or virus in culture; conditions: ATCCBAA1743, read-out: MIC, MDREC
[7] = test system: methicillin-resistant Staphylococcus aureus (MRSA, ATCC 33591); experiment: Antibacterial MIC assay, MRSA; format: cell-based; conditions: for MIC: Staphylococcus aureus, read-out: Minimal inhibitory concentration, MRSA
[8] = test system: Escherichia coli (EC, ATCC 25922); experiment: Antibacterial MIC assay, E. coli; format: cell-based
[9] = Cytotoxicity, human kidney cells; format: cell-based; conditions: human, HEK293T cells (human kidney cells); read-out: half maximal cytotoxicity concentration (CC50), HEK293T
[10] = test system: human kidney cells (HEK293T); experiment: Cytotoxicity, human kidney cells; format: cell-based; conditions: at the compound's P. falciparum EC50; cell line not restated, HEK293T assumed
[11] = asexual blood stages, 72 h, 95% confidence interval, read-out: Half-maximal effective concentration, P. falciparum
[12] = positive controls, read-out: EC50, P. falciparum
[13] = MIC90, at least 90% inhibition of growth, values expressed as 95% confidence interval
[14] = ATCC25922, Gram– column, footnote e: tested only against E. coli, read-out: Minimal inhibitory concentration, Gram– (tested only against E. coli)

Structure (SMILES)	MIC [1] [µg/mL]	MIC [2] [µg/mL]	MIC [3] [µg/mL]	MIC [4] [µg/mL]	EC50 [5, 11] [µg/mL]	MIC [7, 13] [µg/mL]	other results
O=c1oc2c(O)cc(Oc3ccc(Oc4ccc(Oc5ccc(Oc6ccc(Oc7ccc(Oc8ccc(Oc9ccc(Oc%10ccc(Oc%11ccc(-c%12ccc(O)c(O)c%12)cc%11O)cc%10O)cc9O)cc8O)cc7O)cc6O)cc5O)cc4O)cc3O)cc2c2cc(O)c(O)cc12 [compound 10, α-[(4,8,9-trihydroxy-2-benzo[c]chromen-6-on-2-yl)oxy]-ω-[3,4-dihydroxyphenyl]nona[oxy(2-hydroxyphen-4-yl)]]	> 50	> 50	> 50	> 50	> 2		
O=C1CN(/N=C/c2ccc([N+](=O)[O-])o2)C(=O)N1 [nitrofurantoin]							MIC [6]: 14 ± 1 µg/mL (≈ 58.8 µM)
CN[C@H](CC(C)C)C(=O)N[C@H]1C(=O)N[C@@H](CC(N)=O)C(=O)N[C@H]2C(=O)N[C@H]3C(=O)N[C@H](C(=O)N[C@H](C(=O)O)c4cc(O)cc(O)c4-c4cc3ccc4O)[C@H](O)c3ccc(c(Cl)c3)Oc3cc2cc(c3O[C@@H]2O[C@H](CO)[C@@H](O)[C@H](O)[C@H]2O[C@H]2C[C@](C)(N)[C@H](O)[C@H](C)O2)Oc2ccc(cc2Cl)[C@H]1O [vancomycin, reference compound]							MIC [7]: < 4 µg/mL
O=C(N[C@H](CO)[C@H](O)c1ccc([N+](=O)[O-])cc1)C(Cl)Cl [chloramphenicol, reference compound]	< 8						MIC ([8]; ATCC25922, positive control, read-out: MIC, EC): < 8 µg/mL
C[C@@H]1CC[C@H]2[C@@H](C)C(=O)O[C@@H]3O[C@@]4(C)CC[C@@H]1[C@]32OO4 [artemisinin, reference compound]							EC50 [5, 12]: 30 nM
Oc1ccc(-c2ccc(O)c(O)c2)cc1O [compound 3, 3,4,3′,4′-tetrahydroxy-1,1′-biphenyl]	> 50	> 50	> 50	> 50		> 50	
O=c1oc2c(O)cc(Oc3ccc(Oc4ccc(Oc5ccc(Oc6ccc(Oc7ccc(Oc8ccc(Oc9ccc(Oc%10ccc(-c%11ccc(O)c(O)c%11)cc%10O)cc9O)cc8O)cc7O)cc6O)cc5O)cc4O)cc3O)cc2c2cc(O)c(O)cc12 [compound 8, α-[(4,8,9-trihydroxy-2-benzo[c]chromen-6-on-2-yl)oxy]-ω-[3,4-dihydroxyphenyl]octa[oxy(2-hydroxyphen-4-yl)]]	> 50		> 50	> 50	> 2	13 to 49 (≈ 10.7 to 40.3 µM)	Minimal inhibitory concentration, MRSA [7, 13]: 25 ± 3 µg/mL (≈ 20.5 µM); MIC [8, 14]: > 50 µg/mL
O=c1oc2c(O)cc(Oc3ccc(Oc4ccc(Oc5ccc(Oc6ccc(Oc7ccc(Oc8ccc(Oc9ccc(Oc%10ccc(Oc%11ccc(Oc%12ccc(-c%13ccc(O)c(O)c%13)cc%12O)cc%11O)cc%10O)cc9O)cc8O)cc7O)cc6O)cc5O)cc4O)cc3O)cc2c2cc(O)c(O)cc12 [compound 11, α-[(4,8,9-trihydroxy-2-benzo[c]chromen-6-on-2-yl)oxy]-ω-[3,4-dihydroxyphenyl]deca[oxy(2-hydroxyphen-4-yl)]]	> 50	> 50	> 50	> 50			
O=c1oc2c(O)cc(Oc3ccc(-c4ccc(O)c(O)c4)cc3O)cc2c2c(O)c(O)ccc12 [compound 5, 4,9,10-trihydroxy-2-[(3,3′,4′-trihydroxy-(1,1′-biphenyl)-4-yl)oxy]benzo[c]chromen-6-one]	> 50	> 50	> 50	> 50	1.9 ± 0.2	13 to 49 (≈ 28.2 to 106 µM)	Minimal inhibitory concentration, MRSA [7, 13]: 13 ± 2 µg/mL (≈ 28.2 µM); CC50 [9]: 4.5 µg/mL (≈ 9.77 µM); toxicity at the P. falciparum EC50 values [10]: no toxicity
C[C@@H]1[C@H](O)[C@@H](C)/C=C/C=C/C=C/C=C/C=C/C=C/C=C/[C@H](O[C@@H]2O[C@H](C)[C@@H](O)[C@H](N)[C@@H]2O)C[C@@H]2O[C@](O)(C[C@@H](O)C[C@@H](O)[C@H](O)CC[C@@H](O)C[C@@H](O)CC(=O)O[C@H]1C)C[C@H](O)[C@H]2C(=O)O [amphotericin B, reference compound]			16 ± 1 (≈ 17.3 µM)				
Oc1ccc(Oc2ccc(Oc3ccc(Oc4ccc(Oc5ccc(Oc6ccc(Oc7ccc(Oc8ccc(Oc9ccc(-c%10ccc(O)c(O)c%10)cc9O)cc8O)cc7O)cc6O)cc5O)cc4O)cc3O)cc2O)cc1O [compound 7, α-hydro-ω-[3,4-dihydroxyphenyl]nona[oxy(2-hydroxyphen-4-yl)]]	> 50	> 50	> 50	> 50	> 2		
O=C1C(O)=C([C@H]2CC[C@H](c3ccc(Cl)cc3)CC2)C(=O)c2ccccc21 [atovaquone, reference compound]							EC50 [5, 12]: 0.6 nM
O=c1oc2c(O)cc(Oc3ccc(Oc4ccc(Oc5ccc(Oc6ccc(Oc7ccc(Oc8ccc(Oc9ccc(-c%10ccc(O)c(O)c%10)cc9O)cc8O)cc7O)cc6O)cc5O)cc4O)cc3O)cc2c2cc(O)c(O)cc12 [compound 9, α-[(4,8,9-trihydroxy-2-benzo[c]chromen-6-on-2-yl)oxy]-ω-[3,4-dihydroxyphenyl]hepta[oxy(2-hydroxyphen-4-yl)]]	> 50	> 50	> 50	> 50	> 2	13 to 49 (≈ 11.7 to 44.2 µM)	Minimal inhibitory concentration, MRSA [7, 13]: 14 ± 3 µg/mL (≈ 12.6 µM)
O=c1oc2cc(O)c(O)cc2c2cc(O)c(O)cc12 [compound 4, 2,3,8,9-tetrahydroxybenzo[c]chromen-6-one]	> 50	> 50	> 50	> 50	0.7 ± 0.1	> 50	CC50 [9]: 9.4 µg/mL (≈ 36.1 µM); toxicity at the P. falciparum EC50 values [10]: no toxicity
Oc1ccc(Oc2ccc(Oc3ccc(Oc4ccc(Oc5ccc(Oc6ccc(Oc7ccc(Oc8ccc(-c9ccc(O)c(O)c9)cc8O)cc7O)cc6O)cc5O)cc4O)cc3O)cc2O)cc1O [compound 6, α-hydro-ω-[3,4-dihydroxyphenyl]octa[oxy(2-hydroxyphen-4-yl)]]	> 50	> 50	46 ± 13 (≈ 47.2 µM)	46 ± 9 (≈ 47.2 µM)	> 2	1.4 (≈ 1.44 µM)	Minimal inhibitory concentration, MRSA [7, 13]: 1.4 ± 0.3 µg/mL (≈ 1.44 µM)
O=c1oc2c(O)cc(Oc3ccc(Oc4ccc(Oc5ccc(Oc6ccc(Oc7ccc(Oc8ccc(Oc9ccc(Oc%10ccc(Oc%11ccc(Oc%12ccc(Oc%13ccc(-c%14ccc(O)c(O)c%14)cc%13O)cc%12O)cc%11O)cc%10O)cc9O)cc8O)cc7O)cc6O)cc5O)cc4O)cc3O)cc2c2cc(O)c(O)cc12 [compound 12, α-[(4,8,9-trihydroxy-2-benzo[c]chromen-6-on-2-yl)oxy]-ω-[3,4-dihydroxyphenyl]undeca[oxy(2-hydroxyphen-4-yl)]]	> 50		> 50	> 50			MIC [8, 14]: > 50 µg/mL
